Data: patent US10757941B2, “Microbiocidal oxadiazole derivatives” (SYNGENTA PARTICIPATIONS AG, priority 2016, dated 2020)

Assays:
[1] = test system: Puccinia recondita f. Sp. Tritici; test: Fungicidal activity against Puccinia recondita f. sp. tritici / wheat / leaf disc preventative (brown rust); type: in vivo; details: foliar, 200 ppm in the applied formulation, wheat leaf segments cv. Kanzler, preventative (inoculated 1 day after application), assessed 7 to 9 days after application, compared to untreated, read-out: disease control
Experimental: Leaf disks or leaf segments of various plant species are cut from plants grown in a greenhouse. The cut leaf disks or segments are placed in multiwell plates (24-well format) onto water agar. The leaf disks are sprayed with a test solution before (preventative) or after (curative) inoculation. Compounds to be tested are prepared as DMSO solutions (max. 10 mg/ml) which are diluted to the appropriate concentration with 0.025% Tween20 just before spraying. The inoculated leaf disks or segments are incubated under defined conditions (temperature, relative humidity, light, etc.) according to the respective test system. A single evaluation of disease level is carried out 3 to 14 days after inoculation, depending on the pathosystem. Percent disease control relative to the untreated check leaf disks or segments is then calculated. Example 1: Fungicidal Activity Against Puccinia recondita f. Sp. Tritici/Wheat/Leaf Disc Preventative (Brown Rust) Wheat leaf segments cv. Kanzler were placed on agar in multiwell plates (24-well format) and sprayed with the formulated test compound diluted in water. The leaf disks were inoculated with a spore suspension of the fungus 1 day after application. The inoculated leaf segments were incubated at 19° C. and 75% relative humidity (rh) under a light regime of 12 hours light/12 hours darkness in a climate cabinet and the activity of a compound was assessed as percent disease control compared to untreated when an appropriate level of disease damage appears in untreated check leaf segments (7 to 9 days after application). The following compounds at 200 ppm in the applied formulation give at least 80% disease control in this test when compared to untreated control leaf disks under the same conditions, which show extensive disease development.

[2] = test system: Uromyces viciae-fabael; test: Fungicidal activity against Uromyces viciae-fabae / field bean / leaf disc preventative (faba-bean rust); type: in vivo; details: foliar, 288 h, 100 ppm in the applied formulation, field bean leaf discs, preventative (inoculated two hours after application), assessed 12 days after application, compared to untreated, read-out: disease control
Experimental: Leaf disks or leaf segments of various plant species are cut from plants grown in a greenhouse. The cut leaf disks or segments are placed in multiwell plates (24-well format) onto water agar. The leaf disks are sprayed with a test solution before (preventative) or after (curative) inoculation. Compounds to be tested are prepared as DMSO solutions (max. 10 mg/ml) which are diluted to the appropriate concentration with 0.025% Tween20 just before spraying. The inoculated leaf disks or segments are incubated under defined conditions (temperature, relative humidity, light, etc.) according to the respective test system. A single evaluation of disease level is carried out 3 to 14 days after inoculation, depending on the pathosystem. Percent disease control relative to the untreated check leaf disks or segments is then calculated. Example 5: Fungicidal Activity Against Uromyces viciae-fabael Field Bean/Leaf Disc Preventative (Faba-Bean Rust) Field bean leaf discs are placed on water agar in multiwell plates (96-well format) and 10 μl of the formulated test compound diluted in acetone and a spreader pipetted onto the leaf disc. Two hours after application leaf discs are inoculated by spraying a spore suspension on the lower leaf surface. The leaf discs are incubated in a climate cabinet at 22° C. with 18 hour day and 70% relative humidity. The activity of a compound is assessed as percent disease control compared to untreated when an appropriate level of disease damage appears in untreated check leaf disks (12 days after application). The following compounds at 100 ppm in the applied formulation give at least 80% disease control in this test when compared to untreated control leaf discs under the same conditions, which show extensive disease development.

[3] = test system: Puccinia recondita f. Sp. Tritici; test: Fungicidal activity against Puccinia recondita f. sp. tritici / wheat / leaf disc curative (brown rust); type: in vivo; details: foliar, 200 ppm in the applied formulation, wheat leaf segments cv. Kanzler, curative (applied 1 day after inoculation), assessed 6 to 8 days after application, compared to untreated, read-out: disease control
Experimental: Leaf disks or leaf segments of various plant species are cut from plants grown in a greenhouse. The cut leaf disks or segments are placed in multiwell plates (24-well format) onto water agar. The leaf disks are sprayed with a test solution before (preventative) or after (curative) inoculation. Compounds to be tested are prepared as DMSO solutions (max. 10 mg/ml) which are diluted to the appropriate concentration with 0.025% Tween20 just before spraying. The inoculated leaf disks or segments are incubated under defined conditions (temperature, relative humidity, light, etc.) according to the respective test system. A single evaluation of disease level is carried out 3 to 14 days after inoculation, depending on the pathosystem. Percent disease control relative to the untreated check leaf disks or segments is then calculated. Example 2: Fungicidal Activity Against Puccinia recondita f. Sp. Tritici/Wheat/Leaf Disc Curative (Brown Rust) Wheat leaf segments cv. Kanzler are placed on agar in multiwell plates (24-well format). The leaf segments are then inoculated with a spore suspension of the fungus. Plates were stored in darkness at 19° C. and 75% relative humidity. The formulated test compound diluted in water was applied 1 day after inoculation. The leaf segments were incubated at 19° C. and 75% relative humidity under a light regime of 12 hours light/12 hours darkness in a climate cabinet and the activity of a compound was assessed as percent disease control compared to untreated when an appropriate level of disease damage appears in untreated check leaf segments (6 to 8 days after application). The following compounds at 200 ppm in the applied formulation give at least 80% disease control in this test when compared to untreated control leaf disks under the same conditions, which show extensive disease development.

[4] = test system: Glomerella lagenarium (Colletotrichum lagenarium); test: Fungicidal activity against Glomerella lagenarium (Colletotrichum lagenarium) liquid culture / cucumber / preventative (anthracnose); type: cell-based; details: Colletotrichum orbiculare; 20 ppm in the applied formulation; liquid culture in PDB, 24° C.; inhibition of growth measured photometrically 3 to 4 days after application; compared to untreated; read-out: disease control
Experimental: Mycelia fragments or conidia suspensions of a fungus prepared either freshly from liquid cultures of the fungus or from cryogenic storage, are directly mixed into nutrient broth. DMSO solutions of the test compound (max. 10 mg/ml) are diluted with 0.025% Tween20 by a factor of 50 and 10 μl of this solution is pipetted into a microtiter plate (96-well format). The nutrient broth containing the fungal spores/mycelia fragments is then added to give an end concentration of the tested compound. The test plates are incubated in the dark at 24° C. and 96% relative humidity. The inhibition of fungal growth is determined photometrically after 2 to 7 days, depending on the pathosystem, and percent antifungal activity relative to the untreated check is calculated. Example 4: Fungicidal Activity Against Glomerella lagenarium (Colletotrichum lagenarium) Liquid Culture/Cucumber/Preventative (Anthracnose) Conidia of the fungus from cryogenic storage are directly mixed into nutrient broth (PDB—potato dextrose broth). After placing a (DMSO) solution of test compound into a microtiter plate (96-well format), the nutrient broth containing the fungal spores is added. The test plates are incubated at 24° C. and the inhibition of growth is measured photometrically 3 to 4 days after application. The following compounds at 20 ppm in the applied formulation give at least 80% disease control in this test when compared to untreated control under the same conditions, which show extensive disease development.

[5] = test system: Phakopsora pachyrhizi; test: Fungicidal activity against Phakopsora pachyrhizi / soybean / leaf disc preventative (Asian soybean rust); type: in vivo; details: foliar, 200 ppm in the applied formulation, soybean leaf disks, preventative (inoculated one day after application), assessed 12 to 14 days after application, compared to untreated, read-out: disease control
Experimental: Leaf disks or leaf segments of various plant species are cut from plants grown in a greenhouse. The cut leaf disks or segments are placed in multiwell plates (24-well format) onto water agar. The leaf disks are sprayed with a test solution before (preventative) or after (curative) inoculation. Compounds to be tested are prepared as DMSO solutions (max. 10 mg/ml) which are diluted to the appropriate concentration with 0.025% Tween20 just before spraying. The inoculated leaf disks or segments are incubated under defined conditions (temperature, relative humidity, light, etc.) according to the respective test system. A single evaluation of disease level is carried out 3 to 14 days after inoculation, depending on the pathosystem. Percent disease control relative to the untreated check leaf disks or segments is then calculated. Example 3: Fungicidal Activity Against Phakopsora pachyrhizi/Soybean/Leaf Disc Preventative (Asian Soybean Rust) Soybean leaf disks are placed on water agar in multiwell plates (24-well format) and sprayed with the formulated test compound diluted in water. One day after application leaf discs are inoculated by spraying a spore suspension on the lower leaf surface. After an incubation period in a climate cabinet of 24-36 hours in darkness at 20° C. and 75% rh leaf disc are kept at 20° C. with 12 h light/day and 75% rh. The activity of a compound is assessed as percent disease control compared to untreated when an appropriate level of disease damage appears in untreated check leaf disks (12 to 14 days after application). The following compounds at 200 ppm in the applied formulation give at least 80% disease control in this test when compared to untreated control leaf disks under the same conditions, which show extensive disease development.

CSCCCNC(=O)c1ccc(-c2noc(C(F)(F)F)n2)c(F)c1 [Compound 1.6, 3-fluoro-N-(3-methylsulfanyl-propyl)-4-[5-(trifluoromethyl)-1,2,4-oxadiazol-3-yl]benzamide]
≥ 80%: pest or weed control at 200 ppm [1] | pest or weed control at 100 ppm [2] | pest or weed control at 200 ppm [3]

COC(=O)C1(NC(=O)c2ccc(-c3noc(C(F)(F)F)n3)c(F)c2)CCN(OC)CC1 [Compound 1.13, methyl 4-[[3-fluoro-4-[5-(trifluoromethyl)-1,2,4-oxadiazol-3-yl]benzoyl]amino]-1-methoxy-piperidine-4-carboxylate]
≥ 80%: pest or weed control at 200 ppm [1] | pest or weed control at 100 ppm [2] | pest or weed control at 200 ppm [3]

CN(C(=O)c1ccc(-c2noc(C(F)(F)F)n2)c(F)c1)C1CCN(C(=O)OC(C)(C)C)C1 (stereo not drawn) [Compound 1.2, tert-butyl 3-[[3-fluoro-4-[5-(trifluoromethyl)-1,2,4-oxadiazol-3-yl]benzoyl]-methyl-amino]pyrrolidine-1-carboxylate]
≥ 80%: pest or weed control at 200 ppm [1] | pest or weed control at 100 ppm [2] | pest or weed control at 200 ppm [3] | inhibition of growth at 20 ppm [4]

CC(C)CC(C)NC(=O)c1ccc(-c2noc(C(F)(F)F)n2)c(F)c1 (stereo not drawn) [Compound 1.38, N-(1,3-dimethylbutyl)-3-fluoro-4-[5-(trifluoromethyl)-1,2,4-oxadiazol-3-yl]benzamide]
≥ 80%: pest or weed control at 200 ppm [5] | pest or weed control at 200 ppm [1] | pest or weed control at 100 ppm [2] | inhibition of growth at 20 ppm [4]

O=C(NCC1CC(F)(F)C1(F)F)c1ccc(-c2noc(C(F)(F)F)n2)c(F)c1 (stereo not drawn) [Compound 1.23, 3-fluoro-N-[(2,2,3,3-tetrafluoro-cyclobutyl)methyl]-4-[5-(trifluoromethyl)-1,2,4-oxadiazol-3-yl]benzamide]
≥ 80%: pest or weed control at 200 ppm [5] | pest or weed control at 200 ppm [1] | pest or weed control at 100 ppm [2] | inhibition of growth at 20 ppm [4]

O=C(NCCSCc1ccc(Cl)nc1)c1ccc(-c2noc(C(F)(F)F)n2)c(F)c1 [Compound 1.10, N-[2-[(6-chloro-3-pyridyl)methyl-sulfanyl]ethyl]-3-fluoro-4-[5-(trifluoromethyl)-1,2,4-oxadiazol-3-yl]benzamide]
≥ 80%: pest or weed control at 200 ppm [5] | pest or weed control at 200 ppm [1] | pest or weed control at 100 ppm [2] | inhibition of growth at 20 ppm [4]

CN(C(=O)c1ccc(-c2noc(C(F)(F)F)n2)c(F)c1)c1ccccn1 [Compound 1.5, 3-fluoro-N-methyl-N-(2-pyridyl)-4-[5-(trifluoromethyl)-1,2,4-oxadiazol-3-yl]benzamide]
≥ 80%: pest or weed control at 200 ppm [1] | pest or weed control at 200 ppm [3] | inhibition of growth at 20 ppm [4]

CC(C)(CS(C)(=O)=O)NC(=O)c1ccc(-c2noc(C(F)(F)F)n2)c(F)c1 [Compound 1.22, N-(1,1-dimethyl-2-methylsulfonyl-ethyl)-3-fluoro-4-[5-(trifluoromethyl)-1,2,4-oxadiazol-3-yl]benzamide]
≥ 80%: pest or weed control at 200 ppm [1] | pest or weed control at 100 ppm [2] | pest or weed control at 200 ppm [3]

COc1ccc2[nH]cc(CCNC(=O)c3ccc(-c4noc(C(F)(F)F)n4)c(F)c3)c2c1 [Compound 1.4, 3-fluoro-N-[2-(5-methoxy-1H-indol-3-yl)ethyl]-4-[5-(trifluoromethyl)-1,2,4-oxadiazol-3-yl]benzamide]
≥ 80%: pest or weed control at 200 ppm [5] | pest or weed control at 200 ppm [1] | pest or weed control at 100 ppm [2] | inhibition of growth at 20 ppm [4]

C#CC1(NC(=O)c2ccc(-c3noc(C(F)(F)F)n3)c(F)c2)CCCCC1 [Compound 1.8, N-(1-ethynylcyclohexyl)-3-fluoro-4-[5-(trifluoromethyl)-1,2,4-oxadiazol-3-yl]benzamide]
≥ 80%: pest or weed control at 200 ppm [5] | pest or weed control at 200 ppm [1] | pest or weed control at 100 ppm [2] | inhibition of growth at 20 ppm [4]

O=C(Nc1nccnn1)c1ccc(-c2noc(C(F)(F)F)n2)c(F)c1 [Compound 1.42, 3-fluoro-N-(1,2,4-triazin-3-yl)-4-[5-(trifluoromethyl)-1,2,4-oxadiazol-3-yl]benzamide]
≥ 80%: pest or weed control at 200 ppm [1] | pest or weed control at 200 ppm [3] | inhibition of growth at 20 ppm [4]
